# Source: publication PMC9927415, “Tyrosine Kinase Inhibitors Display Potent Activity against Cryptosporidium parvum” (Microbiology Spectrum, 2022)
# How the values were obtained:
# [1] = target: T1, RET (Homo sapiens, UniProt P07949); test: KINOMEscan competitive binding; conditions: n=1, read-out: Percent inhibition, RET
# T1 construct: purchased DiscoverX (KINOMEscan)
# [2] = target: T2, PKMYT1 (Homo sapiens, UniProt Q99640); test: KINOMEscan competitive binding; conditions: n=1, read-out: Percent inhibition, PKMYT1
# T2 construct: purchased DiscoverX (KINOMEscan)
# T2 sequence (Q99640 1-499): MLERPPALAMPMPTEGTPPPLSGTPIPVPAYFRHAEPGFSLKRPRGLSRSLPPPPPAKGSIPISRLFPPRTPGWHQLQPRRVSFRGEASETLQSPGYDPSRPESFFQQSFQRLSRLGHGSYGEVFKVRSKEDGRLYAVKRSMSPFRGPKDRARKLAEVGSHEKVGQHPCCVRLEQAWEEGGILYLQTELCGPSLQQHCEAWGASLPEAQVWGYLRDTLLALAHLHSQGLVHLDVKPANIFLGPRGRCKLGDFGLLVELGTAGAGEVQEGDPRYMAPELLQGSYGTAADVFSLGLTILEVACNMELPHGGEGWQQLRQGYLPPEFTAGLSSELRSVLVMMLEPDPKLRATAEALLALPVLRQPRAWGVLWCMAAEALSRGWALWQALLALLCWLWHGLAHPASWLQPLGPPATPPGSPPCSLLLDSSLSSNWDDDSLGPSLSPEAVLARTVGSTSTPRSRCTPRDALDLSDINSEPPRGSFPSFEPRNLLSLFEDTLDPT
# [3] = tested on: HepG2 cells; test: Host cell cytotoxicity assay (CellTiter-Glo); conditions: HepG2 CC50/C. parvum EC50
# [4] = target: T3, STK33 (Homo sapiens, UniProt Q9BYT3); test: KINOMEscan competitive binding; conditions: n=1, read-out: Percent inhibition, STK33
# T3 construct: purchased DiscoverX (KINOMEscan)
# T3 sequence (Q9BYT3 whole entry): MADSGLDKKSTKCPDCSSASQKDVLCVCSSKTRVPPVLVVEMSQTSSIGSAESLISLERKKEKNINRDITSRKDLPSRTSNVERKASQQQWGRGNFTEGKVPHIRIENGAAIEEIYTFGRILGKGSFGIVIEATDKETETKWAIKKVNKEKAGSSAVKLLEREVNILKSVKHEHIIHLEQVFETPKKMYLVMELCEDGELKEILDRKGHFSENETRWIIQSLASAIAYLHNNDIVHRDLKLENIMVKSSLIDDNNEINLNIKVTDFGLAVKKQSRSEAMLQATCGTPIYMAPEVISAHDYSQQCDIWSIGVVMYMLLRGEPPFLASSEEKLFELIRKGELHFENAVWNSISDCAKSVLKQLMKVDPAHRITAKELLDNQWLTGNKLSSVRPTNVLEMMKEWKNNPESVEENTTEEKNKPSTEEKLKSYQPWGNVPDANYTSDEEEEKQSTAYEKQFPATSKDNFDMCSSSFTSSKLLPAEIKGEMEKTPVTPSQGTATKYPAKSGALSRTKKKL
# [5] = tested on: panel of 203 kinases; test: KINOMEscan competitive binding, whole panel; parameters: species or system human; conditions: 10 μM; for number of other kinases strongly bound (≥99%): not including the CDKs and Aurora kinase A
# Outline: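 First, kinases were produced as T7 bacteriophage fusion proteins. Then compounds were added to compete them off probe ligands immobilized on a solid support at the ATP site. Finally, bound kinase was measured and converted to percentage inhibition.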
# [6] = target: JAK3; parameters: method as in earlier work; conditions: previous study; read-out: Ki against JAK3; cited from earlier work
# [7] = target: ROCK1; parameters: method as in earlier work; conditions: previous study; read-out: Ki against ROCK1; cited from earlier work
# [8] = tested on: JAK kinase domains; test: KINOMEscan competitive binding; parameters: species or system human; conditions: kinome profiling, 10 μM
# Description: The kinases were expressed as fusions to T7 bacteriophage. This is a sensitive, competitive binding assay where test compounds were used to displace immobilized ATP-site binding probe ligands from kinases of interest. The amount of kinase that remained bound to the immobilized probe ligands on the solid support was quantified. Percentage inhibition data were was plotted on kinome trees using the web-based tool KinMap (http://www.kinhub.org/kinmap) ([60]).
# T1 sequence (P07949 29-1114): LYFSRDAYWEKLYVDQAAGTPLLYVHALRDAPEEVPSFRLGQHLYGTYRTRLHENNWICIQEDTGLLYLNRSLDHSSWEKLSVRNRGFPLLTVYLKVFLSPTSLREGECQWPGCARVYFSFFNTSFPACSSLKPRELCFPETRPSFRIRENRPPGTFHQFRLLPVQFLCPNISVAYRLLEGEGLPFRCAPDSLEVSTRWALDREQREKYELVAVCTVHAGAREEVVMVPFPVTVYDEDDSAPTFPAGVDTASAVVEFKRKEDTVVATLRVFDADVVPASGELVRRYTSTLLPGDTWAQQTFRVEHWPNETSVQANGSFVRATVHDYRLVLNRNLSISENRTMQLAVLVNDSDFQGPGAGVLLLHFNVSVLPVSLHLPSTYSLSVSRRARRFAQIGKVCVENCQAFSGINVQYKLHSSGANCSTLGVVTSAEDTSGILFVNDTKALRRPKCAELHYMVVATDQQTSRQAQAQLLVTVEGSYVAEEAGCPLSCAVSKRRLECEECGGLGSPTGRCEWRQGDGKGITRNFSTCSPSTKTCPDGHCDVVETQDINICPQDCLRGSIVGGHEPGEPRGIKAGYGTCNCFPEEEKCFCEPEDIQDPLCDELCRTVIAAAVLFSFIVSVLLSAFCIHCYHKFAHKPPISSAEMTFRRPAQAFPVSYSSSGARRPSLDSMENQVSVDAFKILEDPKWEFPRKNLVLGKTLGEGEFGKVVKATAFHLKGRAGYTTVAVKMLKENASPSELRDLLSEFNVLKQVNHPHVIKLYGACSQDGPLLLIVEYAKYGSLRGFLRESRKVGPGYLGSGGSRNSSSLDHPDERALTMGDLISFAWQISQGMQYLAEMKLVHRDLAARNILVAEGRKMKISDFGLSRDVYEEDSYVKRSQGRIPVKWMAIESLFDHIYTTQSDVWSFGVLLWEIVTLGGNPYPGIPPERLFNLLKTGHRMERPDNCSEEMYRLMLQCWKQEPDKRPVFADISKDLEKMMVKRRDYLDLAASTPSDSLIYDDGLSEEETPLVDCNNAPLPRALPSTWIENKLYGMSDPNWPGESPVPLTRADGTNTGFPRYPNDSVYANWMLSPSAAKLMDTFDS
Structure (SMILES),inhibition at 10 µM [1],inhibition at 10 µM [2],Selectivity index [3],inhibition at 10 µM [4],number of other kinases strongly bound (≥99%) [5],number of kinases with >99% inhibition [5],Ki [6],Ki [7],"binding to JAK kinase domains, in words [8]"
CN1CCN(c2ccc(Nc3nccc(-c4cnn5ncccc45)n3)cc2C#N)CC1 [Compound 1],89.8%,0%,>100,98.1%,50,–,–,–,–
COc1ccc(Nc2nccc(-c3cnn4ncccc34)n2)cc1 [Compound 2],0%,0%,>100,68.9%,28,–,–,–,–
Cc1ccc(O)cc1Nc1ccnc(Nc2cccc(C(N)=O)c2)n1 [Compound 3],100%,97.9%,–,89.1%,–,–,–,–,–
Cc1ccc(O)cc1N(C)c1ccnc(Nc2cccc(S(N)(=O)=O)c2)n1 [Compound 4],100%,100%,–,85.7%,–,–,–,–,–
Fc1cccc(COc2ccc(Nc3ncnc4c3CN(CCN3CCOCC3)CC4)cc2Cl)c1 [Compound 6],0%,0%,>100,0%,–,–,–,–,–
COc1cc(Nc2nccc(-c3sc(N)nc3-c3cccc(NC(=O)c4c(F)cccc4F)c3)n2)cc(OC)c1OC [Compound 7],100%,0%,14,0%,–,48,–,–,–
C[C@@H](Oc1cc(-c2cnc3ccccn23)sc1C(N)=O)c1ccccc1Cl [Compound 8],0%,81.5%,–,0%,–,–,–,–,–
c1ccc(COc2cccc(-c3ccnc4[nH]ccc34)c2)cc1 [Compound 9],0%,0%,–,0%,–,–,< 500 nM,< 500 nM,little binding
Clc1ccc(Nc2ncc(-c3ccccc3)s2)cc1 [Compound 10],0%,0%,–,0%,–,–,–,–,–
Nc1ncc2c(-c3ccncc3)c[nH]c2n1 [Compound 11],0%,0%,>100,0%,–,–,–,–,–
